Data reported in patent US8791140B2, “Crystalline forms of 6-[2-(methylcarbamoyl)phenylsulfanyl]-3-E-[2-(pyridin-2-yl)ethenyondazole suitable for the treatment of abnormal cell growth in mammals” (Pfizer Inc., priority 2007, dated 2014).

conditions: solid, 1X ICH Option 1 light exposure, Atlas Suntest XLS+ light box, 320 nm cutoff filter
Protocol: A photochemical comparative study of Form XLI, Form XXV, and Form IV was performed.
Approximately 50 mg of each form was placed in 20 ml glass vials. The sample depth was <3 mm. The vials were covered with a quartz glass dish and placed in an Atlas Suntest XLS+ light box equipped with a 320 nm cutoff filter. […] The samples were exposed to artificial light equivalent to the International Conference on Harmonization (ICH) Guidelines for Photostability Testing of New Drug Substances, Option 1 exposure.

SMILES | Potency (wt/wt %) after light exposure [%]
CNC(=O)c1ccccc1Sc1ccc2c(/C=C/c3ccccn3)n[nH]c2c1 [Form IV, 6-[2-(methylcarbamoyl)phenylsulfanyl]-3-E-[2-(pyridin-2-yl)ethenyl]indazole] | 34
CNC(=O)c1ccccc1Sc1ccc2c(/C=C/c3ccccn3)n[nH]c2c1 [Form XLI, 6-[2-(methylcarbamoyl)phenylsulfanyl]-3-E-[2-(pyridin-2-yl)ethenyl]indazole] | 89
CNC(=O)c1ccccc1Sc1ccc2c(/C=C/c3ccccn3)n[nH]c2c1 [Form XXV, 6-[2-(methylcarbamoyl)phenylsulfanyl]-3-E-[2-(pyridin-2-yl)ethenyl]indazole] | 100
